Data: ChEMBL document CHEMBL2163215, “Mitigating hERG Inhibition: Design of Orally Bioavailable CCR5 Antagonists as Potent Inhibitors of R5 HIV-1 Replication” (ACS Med Chem Lett, 2012)
Each block holds one compound with its values, some of them ahead of it. Calls of active or inactive are those of the source. The calls are words filed in the database; no cut-off is given here.

What was measured:
[1] = (§1) Fraction unbound in human plasma after 5 hrs
[2] = Clearance in dog at 5 umol/kg, iv; settings: in vivo
[3] = Half life in dog at 5 umol/kg, iv; settings: in vivo
[4] = Volume of distribution in dog at 5 umol/kg, iv; settings: in vivo
in vivo [5] = settings: dog, po
hERG (KCNH2) = hERG (KCNH2) (Homo sapiens, UniProt Q12809); experiment: Inhibition of human recombinant hERG expressed in CHO cells at 10 uM by automated patch clamp assay; settings: CHO cells expressing human recombinant hERG
Chain of hERG (KCNH2) (Q12809 whole entry): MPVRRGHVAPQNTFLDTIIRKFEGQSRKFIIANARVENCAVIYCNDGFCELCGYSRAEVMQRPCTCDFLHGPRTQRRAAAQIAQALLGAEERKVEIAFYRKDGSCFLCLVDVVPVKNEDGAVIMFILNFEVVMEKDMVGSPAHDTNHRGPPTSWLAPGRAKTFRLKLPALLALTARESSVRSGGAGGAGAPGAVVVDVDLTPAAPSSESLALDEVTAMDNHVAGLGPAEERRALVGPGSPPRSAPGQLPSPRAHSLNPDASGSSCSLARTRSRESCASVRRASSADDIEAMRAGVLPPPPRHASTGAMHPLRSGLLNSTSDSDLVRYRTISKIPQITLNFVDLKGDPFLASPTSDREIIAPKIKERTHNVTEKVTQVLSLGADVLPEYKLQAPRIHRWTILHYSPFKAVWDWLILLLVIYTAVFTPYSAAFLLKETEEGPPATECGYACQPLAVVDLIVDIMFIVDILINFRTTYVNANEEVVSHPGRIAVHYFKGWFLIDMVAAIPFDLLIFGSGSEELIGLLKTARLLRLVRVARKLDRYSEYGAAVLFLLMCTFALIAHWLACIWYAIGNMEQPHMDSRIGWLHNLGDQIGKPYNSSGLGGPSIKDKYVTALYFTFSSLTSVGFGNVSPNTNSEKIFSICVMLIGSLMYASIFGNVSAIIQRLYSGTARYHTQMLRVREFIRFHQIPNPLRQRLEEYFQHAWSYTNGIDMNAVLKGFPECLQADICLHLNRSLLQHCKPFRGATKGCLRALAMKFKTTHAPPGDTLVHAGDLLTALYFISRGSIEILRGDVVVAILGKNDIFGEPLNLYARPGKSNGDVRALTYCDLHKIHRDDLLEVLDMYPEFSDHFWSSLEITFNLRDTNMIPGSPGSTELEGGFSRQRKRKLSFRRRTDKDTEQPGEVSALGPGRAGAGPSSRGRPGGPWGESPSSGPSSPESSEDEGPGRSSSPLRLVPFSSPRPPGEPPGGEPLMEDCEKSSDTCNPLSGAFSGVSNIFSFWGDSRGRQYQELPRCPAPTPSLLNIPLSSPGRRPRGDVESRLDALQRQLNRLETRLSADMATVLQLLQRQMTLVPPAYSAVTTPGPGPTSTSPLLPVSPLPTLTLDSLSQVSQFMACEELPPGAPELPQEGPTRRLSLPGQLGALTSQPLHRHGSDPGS

in vivo [6] = settings: dog, po, 12.5 umol/kg
Description: Oral bioavailability in dog at 12.5 umol/kg

[7] = Cytotoxicity against human PBMC
in vivo [8] = settings: dog, plasma
[9] = system: Human immunodeficiency virus 1; experiment: Antiviral activity against R5 tropic HIV1 Ba-L infected human PBMC assessed as inhibition of viral replication by p-24 antigen specific ELISA; type: functional, organism-based; settings: Human immunodeficiency virus 1, Ba-L
[10] = target: T1, C-X-C chemokine receptor type 2 (Homo sapiens) (UniProt P25025); settings: at 5 µM
T1 sequence (whole entry): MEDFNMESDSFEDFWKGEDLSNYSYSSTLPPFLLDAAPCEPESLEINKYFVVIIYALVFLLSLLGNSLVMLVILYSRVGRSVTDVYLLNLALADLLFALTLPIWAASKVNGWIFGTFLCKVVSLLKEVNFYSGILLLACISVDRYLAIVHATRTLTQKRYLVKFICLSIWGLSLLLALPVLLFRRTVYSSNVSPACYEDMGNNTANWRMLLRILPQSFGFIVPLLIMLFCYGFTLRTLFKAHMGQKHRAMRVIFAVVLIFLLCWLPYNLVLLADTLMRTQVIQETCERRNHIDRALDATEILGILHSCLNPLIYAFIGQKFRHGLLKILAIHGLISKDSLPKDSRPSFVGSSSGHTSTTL
Description: Antagonist activity at CXCR2 at 5 uM by calcium flux assay

[11] = target: T2, C-X-C chemokine receptor type 1 (Homo sapiens) (UniProt P25024); settings: at 5 µM
T2 sequence (whole entry): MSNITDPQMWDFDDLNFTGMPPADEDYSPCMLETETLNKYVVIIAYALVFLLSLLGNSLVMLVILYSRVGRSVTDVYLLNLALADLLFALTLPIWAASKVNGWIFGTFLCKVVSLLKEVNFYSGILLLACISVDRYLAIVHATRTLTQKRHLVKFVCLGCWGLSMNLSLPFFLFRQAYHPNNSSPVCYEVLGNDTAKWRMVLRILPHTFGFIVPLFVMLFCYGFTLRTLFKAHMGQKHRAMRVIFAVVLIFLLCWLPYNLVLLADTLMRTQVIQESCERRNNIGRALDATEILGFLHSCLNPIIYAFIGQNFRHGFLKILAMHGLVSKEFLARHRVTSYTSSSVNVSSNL
Description: Antagonist activity at CXCR1 at 5 uM by calcium flux assay

[12] = target: T3, C-C chemokine receptor type 4 (Homo sapiens) (UniProt P51679); settings: at 5 µM
T3 sequence (whole entry): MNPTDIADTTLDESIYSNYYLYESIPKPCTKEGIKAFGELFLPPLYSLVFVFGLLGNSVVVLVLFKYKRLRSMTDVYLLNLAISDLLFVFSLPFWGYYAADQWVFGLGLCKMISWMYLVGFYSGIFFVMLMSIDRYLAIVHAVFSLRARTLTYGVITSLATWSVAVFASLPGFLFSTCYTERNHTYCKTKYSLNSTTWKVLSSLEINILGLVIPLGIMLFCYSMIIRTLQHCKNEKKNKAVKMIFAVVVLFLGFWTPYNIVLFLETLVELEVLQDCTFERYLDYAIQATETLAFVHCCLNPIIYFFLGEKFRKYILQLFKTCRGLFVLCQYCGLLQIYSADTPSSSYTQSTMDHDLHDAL
Description: Antagonist activity at CCR4 at 5 uM by calcium flux assay

[13] = target: C-C chemokine receptor type 2 (Homo sapiens) (UniProt P41597); settings: at 5 µM
Chain of C-C chemokine receptor type 2 (Homo sapiens) (P41597 whole entry, looked up): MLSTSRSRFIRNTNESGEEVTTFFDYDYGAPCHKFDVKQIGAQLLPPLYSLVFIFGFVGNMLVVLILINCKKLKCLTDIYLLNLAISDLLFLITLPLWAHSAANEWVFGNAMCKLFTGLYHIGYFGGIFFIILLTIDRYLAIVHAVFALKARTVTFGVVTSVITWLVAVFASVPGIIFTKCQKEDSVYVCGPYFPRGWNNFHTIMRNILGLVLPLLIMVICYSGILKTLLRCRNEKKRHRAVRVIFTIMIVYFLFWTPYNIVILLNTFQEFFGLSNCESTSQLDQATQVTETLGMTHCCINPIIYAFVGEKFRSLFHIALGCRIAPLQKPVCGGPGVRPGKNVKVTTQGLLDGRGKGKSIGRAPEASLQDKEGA
Description: Antagonist activity at CCR2b at 5 uM by calcium flux assay

[14] = target: T4, C-C chemokine receptor type 1 (Homo sapiens) (UniProt P32246); settings: at 5 µM
T4 sequence (whole entry): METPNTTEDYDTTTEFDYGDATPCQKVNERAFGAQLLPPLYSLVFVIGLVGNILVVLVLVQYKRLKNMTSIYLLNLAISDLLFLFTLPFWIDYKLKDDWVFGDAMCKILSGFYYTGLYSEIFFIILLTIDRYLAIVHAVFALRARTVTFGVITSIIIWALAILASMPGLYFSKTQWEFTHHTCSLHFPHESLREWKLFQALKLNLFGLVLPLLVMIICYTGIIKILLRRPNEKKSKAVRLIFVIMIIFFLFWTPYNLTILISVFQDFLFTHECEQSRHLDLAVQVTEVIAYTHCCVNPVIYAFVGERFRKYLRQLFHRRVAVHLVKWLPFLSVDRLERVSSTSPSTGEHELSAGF
Description: Antagonist activity at CCR1 at 5 uM by calcium flux assay

[15] = target: C-X-C chemokine receptor type 4 (Homo sapiens) (UniProt P61073); settings: at 5 µM
Chain of C-X-C chemokine receptor type 4 (Homo sapiens) (P61073 whole entry): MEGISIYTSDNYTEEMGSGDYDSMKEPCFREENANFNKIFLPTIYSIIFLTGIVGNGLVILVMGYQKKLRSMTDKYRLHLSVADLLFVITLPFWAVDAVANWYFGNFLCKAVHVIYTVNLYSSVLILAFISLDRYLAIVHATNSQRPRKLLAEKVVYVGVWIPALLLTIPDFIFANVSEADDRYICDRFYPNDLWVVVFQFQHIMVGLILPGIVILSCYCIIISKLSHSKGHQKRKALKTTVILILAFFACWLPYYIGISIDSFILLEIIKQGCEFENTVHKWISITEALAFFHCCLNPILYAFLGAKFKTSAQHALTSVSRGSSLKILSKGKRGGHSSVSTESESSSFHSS
Description: Antagonist activity at CXCR4 at 5 uM by calcium flux assay

[16] = Cardiotoxicity in dog purkinje fiber assessed as change in resting membrane potential at 10 uM measured at basic cycle length of 1 second
[17] = Cardiotoxicity in dog purkinje fiber assessed as change in action potential duration at 90% at 10 uM measured at basic cycle length of 2 seconds
[18] = Cardiotoxicity in dog purkinje fiber assessed as change in action potential amplitude at 10 uM measured at basic cycle length of 0.5 seconds
[19] = Cardiotoxicity in dog purkinje fiber assessed as change in action potential duration at 60% at 10 uM measured at basic cycle length of 0.5 seconds
[20] = Cardiotoxicity in dog purkinje fiber assessed as change in action potential duration at 90% at 10 uM measured at basic cycle length of 0.5 seconds
[21] = Cardiotoxicity in dog purkinje fiber assessed as change in resting membrane potential at 10 uM measured at basic cycle length of 0.5 seconds
[22] = Cardiotoxicity in dog purkinje fiber assessed as change in action potential duration at 60% at 10 uM measured at basic cycle length of 1 second
[23] = Cardiotoxicity in dog purkinje fiber assessed as change in action potential duration at 60% at 10 uM measured at basic cycle length of 2 seconds
[24] = Cardiotoxicity in dog purkinje fiber assessed as change in action potential amplitude at 10 uM measured at basic cycle length of 2 seconds
[25] = Cardiotoxicity in dog purkinje fiber assessed as change in resting membrane potential at 10 uM measured at basic cycle length of 2 seconds
[26] = Cardiotoxicity in dog purkinje fiber assessed as change in action potential amplitude at 10 uM measured at basic cycle length of 1 second
[27] = Toxicity in rat administered for 7 days; settings: in vivo
[28] = Cardiotoxicity in dog purkinje fiber assessed as change in action potential duration at 90% at 10 uM measured at basic cycle length of 1 second
Plasma = experiment: as §1; settings: 5 h
[29] = target: Voltage-gated inwardly rectifying potassium channel KCNH2 (Homo sapiens, UniProt Q12809); experiment: Inhibition of human recombinant hERG expressed in CHO cells by automated patch clamp assay
Chain of Voltage-gated inwardly rectifying potassium channel KCNH2 (Q12809 whole entry): as the sequence (Q12809 whole entry) above

fraction unbound at 5 h [1]: 0.85 | IC50 [9]: 16.1 nM
SMILES: Cc1cc(C#N)nc(C)c1C(=O)NCC[C@@H](C)N1CCC(N(Cc2ccsc2)C(=O)CC2CCOCC2)CC1
inhibition at 10 µM (hERG (KCNH2)): 61% | CC50 [7]: > 36.2 µM

inhibition [10]: inactive | inhibition [11]: inactive | inhibition [12]: inactive | inhibition [13]: inactive | inhibition [14]: inactive | inhibition [15]: inactive | IC50 [9]: 14.8 nM
SMILES: CONC(=O)N(Cc1ccsc1)C1CCN([C@H](C)CCNC(=O)c2c(C)cc(Cl)nc2C)CC1

IC50 [9]: 138 nM
SMILES: CC(=O)N(Cc1ccsc1)C1CCN([C@H](C)CCNC(=O)c2c(C)cc(Cl)nc2C)CC1

fraction unbound at 5 h [1]: 0.75 | clearance [2]: 39.2 mL/min/kg | Vd [4]: 6.3 L/kg | Cmax (in vivo [5]): 1940 nM | bioavailability (in vivo [6]): 60% | AUC(0-inf) (in vivo [8]): 3.24 µM·h | IC50 [9]: 2.9 nM
SMILES: CONC(=O)N(Cc1ccsc1)C1CCN([C@H](C)CCNC(=O)c2c(C)cc(C#N)nc2Cl)CC1
CC50 [7]: > 38.5 µM

fraction unbound at 5 h [1]: 0.8 | IC50 [9]: 22.5 nM
SMILES: Cc1cc(Cl)nc(C)c1C(=O)NCC[C@@H](C)N1CCC(N(Cc2ccsc2)C(=O)CC2CCOCC2)CC1
inhibition at 10 µM (hERG (KCNH2)): 67% | CC50 [7]: > 35.6 µM

fraction unbound at 5 h [1]: 0.4 | IC50 [9]: 344 nM
SMILES: Cc1cc(Cl)nc(C)c1C(=O)NCC[C@@H](C)N1CCC(N(Cc2ccsc2)C(=O)NO)CC1
inhibition at 10 µM (hERG (KCNH2)): 44% | CC50 [7]: > 38.5 µM

inhibition [10]: inactive | inhibition [11]: inactive | inhibition [12]: inactive | inhibition [13]: inactive | inhibition [14]: inactive | inhibition [15]: inactive | IC50 [9]: 38 nM
SMILES: COCC(=O)N(Cc1ccsc1)C1CCN([C@H](C)CCNC(=O)c2c(C)cc(Cl)nc2C)CC1

fraction unbound at 5 h [1]: 0.46 | IC50 [9]: 15.5 nM
SMILES: CNC(=O)N(Cc1ccsc1)C1CCN([C@H](C)CCNC(=O)c2c(C)cc(Cl)nc2C)CC1
IC50 [29]: 1600 nM | inhibition at 10 µM (hERG (KCNH2)): 73% | CC50 [7]: > 40.6 µM

The remaining lines, values behind:

SMILES: CONC(=O)N(Cc1ccsc1)C1CCN([C@H](C)CCNC(=O)c2c(C)cc(Cl)[n+]([O-])c2Cl)CC1
fraction unbound at 5 h [1]: 0.31 | clearance [2]: 40.3 mL/min/kg | half-life [3]: 42 min | Vd [4]: 2.6 L/kg | Cmax (in vivo [5]): 260 nM | inhibition at 10 µM (hERG (KCNH2)): 21% | bioavailability (in vivo [6]): 7% | CC50 [7]: > 38.5 µM | AUC(0-inf) (in vivo [8]): 0.37 µM·h | IC50 [9]: 7.3 nM

SMILES: CONC(=O)N(Cc1ccsc1)C1CCN([C@H](C)CCNC(=O)c2c(C)cc(C(=O)NC(C)C)nc2C)CC1
inhibition [10]: inactive | inhibition [11]: inactive | inhibition [12]: inactive | inhibition [13]: inactive | inhibition [14]: inactive | inhibition [15]: inactive | IC50 [9]: 4.8 nM

SMILES: COc1ccc(N(Cc2ccsc2)C2CCN([C@H](C)CCNC(=O)c3c(C)ncnc3C)CC2)cc1
fraction unbound at 5 h [1]: 0.91 | inhibition at 10 µM (hERG (KCNH2)): 97% | CC50 [7]: > 38.7 µM | IC50 [9]: 65.9 nM

SMILES: Cc1cc(Cl)nc(C)c1C(=O)NCC[C@@H](C)N1CCC(N(Cc2ccsc2)C(=O)Nc2cccnc2)CC1
fraction unbound at 5 h [1]: 0.46 | inhibition at 10 µM (hERG (KCNH2)): 20% | CC50 [7]: > 32.4 µM | IC50 [9]: 34.4 nM

SMILES: COCCONC(=O)N(Cc1ccsc1)C1CCN([C@H](C)CCNC(=O)c2c(C)cc(Cl)nc2C)CC1
inhibition [10]: inactive | Activity [16]: -2.8 mV | Activity [17]: 22.6% | fraction unbound at 5 h [1]: 0.43 | inhibition [11]: inactive | inhibition [12]: inactive | inhibition [13]: inactive | Activity [18]: 1.2 mV | Activity [19]: 12.2% | Activity [20]: 10.5% | Activity [21]: -3.6 mV | Activity [22]: 18.1% | Activity [23]: 24.2% | inhibition [14]: inactive | CC50 [7]: > 34.4 µM | Activity [24]: 2.4 mV | inhibition [15]: inactive | Activity [25]: -2.7 mV | IC50 [9]: 21.3 nM | Activity [26]: 1.3 mV | NOAEL at 168 h [27]: ≥ 400 mg/kg | Activity [28]: 16.5%

SMILES: COc1ccc(N(Cc2cnccc2C)C2CCN([C@H](C)CCNC(=O)c3c(C)ncnc3C)CC2)cc1
Fu (Plasma): 83% | inhibition at 10 µM (hERG (KCNH2)): 58% | CC50 [7]: > 38.3 µM | IC50 [9]: 1830 nM
